# Assay results taken from patent publication US20240417406A1, “NITROGEN-CONTAINING TRICYCLIC COMPOUND AND PHARMACEUTICAL USE THEREOF” (JAPAN TOBACCO INC., priority 2021, published 2024).
# pIC50: −log10 of the molar value.
# Molecular target: human PDHK2 (hPDHK2) (Homo sapiens (Human), UniProt Q15119)
# Test: Inhibitory action of PDHK2 activity (PDH/hPDHK2 complex, residual PDH activity by NADH absorbance at 340 nm)
# Type: biochemical
# Settings: FLAG-tagged recombinant hPDHK2 with porcine heart PDH complex; PDHK reaction 45 min at room temperature
# Outline: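 N-FLAG hPDHK2 from E. coli (0.5 μg/mL) preincubated overnight at 4 °C with porcine heart PDH complex (0.025 U/mL), pH 7.0 MOPS buffer. Pyruvate, CoA, NAD and TPP substrates added, 90 min at room temperature. Residual PDH activity from NADH A340 change, corrected for compound effect on PDH alone; IC50 from inhibition %.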
row,pIC50,SMILES
1,8.02,C[C@H]1Cn2c(nnc2C23CC(C(F)(F)F)(C2)C3)-c2onc([C@@](C)(O)C(F)(F)F)c21 [Example 9]
2,7.86,"C[C@H]1Cn2nc(OCC(C)(C)O)cc2-c2onc([C@@](C)(O)C(F)(F)F)c21 [Example 31, (R)-1,1,1-trifluoro-2-((R)-8-(2-hydroxy-2-methylpropoxy)-4-methyl-4,5-dihydroisoxazolo[5,4-c]pyrazolo[1,5-a]pyridin-3-yl)propan-2-ol]"
3,8.04,"C[C@H]1Cn2nc(C34CCC(C(C)(C)O)(CC3)CO4)cc2-c2cnc([C@@](C)(O)C(F)(F)F)n21 [Example 98, (R)-1,1,1-trifluoro-2-((S)-9-(4-(2-hydroxypropan-2-yl)-2-oxabicyclo[2.2.2]octan-1-yl)-5-methyl-5,6-dihydroimidazo[1,5-a]pyrazolo[5,1-c]pyrazin-3-yl)propan-2-ol]"

# Second part, the compound before the results:
row,SMILES,pIC50
1,C[C@H]1Cn2c(nnc2C(C)(C)F)-c2onc([C@@](C)(O)C(F)(F)F)c21 [Example 4],7.96
2,"C[C@H]1Cc2c(cnn2-c2ccccc2)-c2cnc(C(C)(O)C(F)(F)F)n21 (stereo in doubt) [Example 73, (S)-1,1,1-trifluoro-2-((S)-5-methyl-3-phenyl-4,5-dihydro-3H-imidazo[1,5-a]pyrazolo[4,3-c]pyridin-7-yl)propan-2-ol]",7.80
